Laboratory results reported in patent US12435061B2 (priority 2020, dated 2025).
Where two headings read alike, the source gives them in different places.

Biological target: hTRPV3 (Homo sapiens (Human), UniProt Q8NET8)
Assay: Whole-cell patch clamp, hTRPV3 Phase 1 / Phase 2 currents
Format: cell-based
Description: Whole-cell patch clamp experiments permit the detection of currents through the TRPV3 channel in the cell line described above. A glass electrode is brought into contact with a single cell and the membrane is then ruptured, permitting control of the voltage of the cell membrane and measurement of currents flowing across the membrane using the amplifier attached to the electrode. A perfusion system permits control of the extracellular solution, including the addition of blockers and activators of the current. The current can be activated by heating this solution to 28° C. or warmer or by addition of 20 μM 2-APB to the solution.
TRPV3 cells were induced 20-48 hours, removed from growth plates, and replated at low density (to attain good single-cell physical separation) on glass coverslips for measurement. In some cases, cells were grown in low density overnight on glass coverslips. Patch clamp recordings were made in the whole-cell mode with a holding potential of −40 mV. Every 5 seconds, a voltage ramp was applied from −120 to +100 mV, 400 ms in duration. Currents elicited were quantified at −80 mV and +80 mV. […] External solution was Ringer's solution described above.
P1 refers to the Phase 1 current for human (h) TRPV3, and P2 refers to the Phase 2 current for human (h) TRPV3.
In Tables 3 and 4, Phase 1 refers to Phase 1 current for human (h) TRPV3 or rat (r) TRPV3, and Phase 2 refers to Phase 2 current for human (h) TRPV3 or rat (r) TRPV3. The hTRPV3 and rTRPV3 assays were performed as described herein. hERG refers to the inhibition the human ERG (hERG) channel. NaV1.5, refers to the pore forming aL-subunit of the voltage-dependent cardiac Na(+) channel and is an integral membrane protein involved in the initiation and conduction of action potentials. hTRPV3 HAMA IC50 refers to the IC50 of TRPV3 cells stably expressed in TRex-293 cells. Solubility Ringer refers to the compounds' solubility in Ringer's solution. LM T1/2 refers to liver microsome half-lives in either rat or human liver microsomes. FLIPR IC50 refers to the IC50 of the test compounds against recombinant hTRPV3 cells.

[1] = Phase 1 current, inward, whole-cell patch clamp, read-out: hTRPV3 Patch P1 Inwd
[2] = Phase 1 current, read-out: hTRPV3 (nM) (Phase 1)
[3] = Phase 2 current, inward, whole-cell patch clamp, read-out: hTRPV3 Patch P2 Inwd
[4] = Phase 2 current, read-out: hTRPV3 (nM) (Phase 2)
[5] = Phase 1 current, human TRPV3, read-out: hTRPV3 (nM) Phase 1

Chain of hTRPV3 (Q8NET8 whole entry): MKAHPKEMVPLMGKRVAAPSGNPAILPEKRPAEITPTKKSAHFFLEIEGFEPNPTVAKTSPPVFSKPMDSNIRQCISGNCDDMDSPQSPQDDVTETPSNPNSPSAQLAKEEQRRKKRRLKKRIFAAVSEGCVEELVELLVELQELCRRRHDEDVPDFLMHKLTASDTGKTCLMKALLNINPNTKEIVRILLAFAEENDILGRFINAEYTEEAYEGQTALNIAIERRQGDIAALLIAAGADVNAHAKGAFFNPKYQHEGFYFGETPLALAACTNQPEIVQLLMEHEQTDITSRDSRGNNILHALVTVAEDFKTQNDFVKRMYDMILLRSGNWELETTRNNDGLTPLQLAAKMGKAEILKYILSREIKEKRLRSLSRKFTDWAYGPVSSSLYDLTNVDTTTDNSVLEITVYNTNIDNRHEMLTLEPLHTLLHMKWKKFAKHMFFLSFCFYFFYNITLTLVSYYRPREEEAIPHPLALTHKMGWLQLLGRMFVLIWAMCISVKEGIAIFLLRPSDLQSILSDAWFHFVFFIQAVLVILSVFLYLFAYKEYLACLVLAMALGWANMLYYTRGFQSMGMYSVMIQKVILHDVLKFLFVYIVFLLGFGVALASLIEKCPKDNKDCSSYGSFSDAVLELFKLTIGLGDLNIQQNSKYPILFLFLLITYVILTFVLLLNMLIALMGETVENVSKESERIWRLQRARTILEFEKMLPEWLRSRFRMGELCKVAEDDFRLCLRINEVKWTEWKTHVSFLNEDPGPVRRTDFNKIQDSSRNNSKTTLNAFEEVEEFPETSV

OCc1cc(Oc2ccc(Cl)cc2)ccc1N1C[C@@H](O)[C@H](Oc2ccc(C(F)(F)F)cn2)C1 [Compound 1-285] gave an IC50 [1] greater than 1000 nM, an IC50 [2] greater than 3200 nM and an IC50 [3] greater than 1000 nM. For the same compound, the IC50 [4] was roughly 4900 nM.

NC(=O)c1cc(Cc2ccccc2)ccc1N1CC[C@H](Oc2ncccc2Cl)C1 [Compound 1-145, (S)-5-benzyl-2-(3-(3-chloropyridin-2-yloxy)pyrrolidin-1-yl)benzamide] gave an IC50 [1] greater than 1000 nM, an IC50 [2] of 1950 nM and an IC50 [3] of 100 to 1000 nM. The IC50 [4] was 749 nM.

In the case of CCc1cccnc1Oc1ccc(C2CCN(C(=O)c3ccc(F)cn3)C2)c(CO)c1 (stereo not drawn) [Compound 2-44, (3-(4-(3-ethylpyridin-2-yloxy)-2-(hydroxymethyl)phenyl)pyrrolidin-1-yl)(5-fluoropyridin-2-yl)methanone], the IC50 [5] is reported as greater than 3200 nM and the IC50 [1] is reported as greater than 1000 nM.

CCc1ccccc1Oc1ccc(C2CC(=O)N(Cc3ccc(Cl)cn3)C2)c(C(N)=O)c1 (stereo not drawn) [Compound 2-101, 2-(1-((5-chloropyridin-2-yl)methyl)-5-oxopyrrolidin-3-yl)-5-(2-ethylphenoxy)benzamide] was tested, and the IC50 [5] was greater than 3200 nM and the IC50 [1] was greater than 1000 nM.

For Cc1ccccc1N1CCC(Nc2ncc(C(F)(F)F)cc2Cl)C1 (stereo not drawn) [Compound 1-371, 3-chloro-N-(1-o-tolylpyrrolidin-3-yl)-5-(trifluoromethyl)pyridin-2-amine], the IC50 [1] was greater than 1000 nM and the IC50 [3] was greater than 1000 nM.

For N#Cc1ccccc1N1CCC(Oc2ccc(C(F)(F)F)cn2)C1 (stereo not drawn) [Compound 1-5], the IC50 [1] was greater than 1000 nM and the IC50 [3] was greater than 1000 nM.

In the case of Cc1ccc(O[C@H]2CCN(c3ccc(-c4ccccc4)nc3CCO)C2)nc1 [Compound 1-215], the IC50 [1] is reported as greater than 1000 nM and the IC50 [2] is reported as 1000 nM.

Compound Cc1nccnc1C(=O)N1CCC(c2ccc(-c3ccccc3C3CC3)cc2CO)C1 (stereo not drawn) [Compound 2-104, (3-(2′-cyclopropyl-3-(hydroxymethyl)biphenyl-4-yl)pyrrolidin-1-yl)(3-methylpyrazin-2-yl)methanone] has an IC50 [5] of 756 nM and an IC50 [1] of 100 to 1000 nM.

With CC(C)(C)OC(=O)N1CCC(c2ccc(N3CC[C@H](Oc4ccc(C(F)(F)F)cn4)C3)c(CCO)c2)CC1 [Compound 1-301, (S)-tert-butyl 4-(3-(2-hydroxyethyl)-4-(3-(5-(trifluoromethyl)pyridin-2-yloxy)pyrrolidin-1-yl)phenyl)piperidine-1-carboxylate] the IC50 [1] was greater than 1000 nM and the IC50 [2] was roughly 2980 nM.

CNC(=O)c1ccccc1N1CC[C@@H](Oc2ccc(C(F)(F)F)cn2)C1 [Compound 1-47, (R)—N-methyl-2-(3-(5-(trifluoromethyl)pyridin-2-yloxy)pyrrolidin-1-yl)benzamide] showed an IC50 [1] greater than 1000 nM.

With NC(=O)c1cc(-c2ncc[nH]2)ccc1N1CC[C@@H](Oc2ccc(C(F)(F)F)cn2)C1 [Compound 1-107, (R)-5-(1H-imidazol-2-yl)-2-(3-(5-(trifluoromethyl)pyridin-2-yloxy)pyrrolidin-1-yl)benzamide] the IC50 [1] was greater than 1000 nM, the IC50 [2] was greater than 1000 nM and the IC50 [3] was greater than 1000 nM. For the same compound, the IC50 [4] was greater than 1000 nM.

With CCc1ccccc1Oc1ccc(N2CC[C@H](Oc3ccccn3)C2)c(CCO)c1 [Compound 1-335] the IC50 [1] was 10 to 100 nM and the IC50 [2] was 66.3 nM.

Work on CC(C)c1ccccc1-c1ccc(C2CCN(C(=O)c3ccccn3)C2)c(C(N)=O)c1 (stereo not drawn) [Compound 2-45] yielded an IC50 [5] of 929 nM and an IC50 [1] of 100 to 1000 nM.

With CC(C)c1ccccc1Oc1ccc(N2CC[C@H](Oc3ccc(C#N)cn3)C2)c(CCO)c1 [Compound 1-362] the IC50 [1] was 10 to 100 nM and the IC50 [2] was 61.2 nM.

In the case of NC(=O)c1cc(-c2ccccc2)ccc1N1CC[C@@H](Oc2ccccn2)C1 [Compound 1-78, (R)-4-(3-(pyridin-2-yloxy)pyrrolidin-1-yl)biphenyl-3-carboxamide], the IC50 [1] is reported as 100 to 1000 nM, the IC50 [2] is reported as roughly 835 nM and the IC50 [3] is reported as 100 to 1000 nM. It also gave an IC50 [4] of 402 nM.

In the case of Cc1cccc(C(=O)c2ccc(C3CCN(C(=O)c4ncccc4Cl)C3)c(CO)c2)c1 (stereo not drawn) [Compound 2-9, (4-(1-(3-chloropicolinoyl)pyrrolidin-3-yl)-3-(hydroxymethyl)phenyl)(m-tolyl)methanone], the IC50 [5] is reported as greater than 3200 nM and the IC50 [1] is reported as greater than 1000 nM.
